# Entries after “also recorded” stand apart in the source; their conditions may differ. Where two headings read alike, the source gives them in different places. Starred links: 1 amine or outer side, 2 acyl side, 3 side chain; linkers in the order of their positions; H or OH if unused. Non-standard residues stand in square brackets, D forms with d. Residues, ends and D or L forms follow the SMILES beside them. Groups on a side chain read outwards from the residue. *: point of attachment. Ethylenediamine = C(CN[*:2])N[*:1]; Hyp = O=C(O)[C@@H]1C[C@@H](O)CN1; Phg = N[C@H](C(=O)O)c1ccccc1; CO = O=C([*:1])[*:2]; Bn = c1ccc(C*)cc1
# Experiments:
# [1] = tested on: PR/p63 double positive cells; assay: Simultaneous immunofluorescence for PR and p63 in mammary glands of Brca1LoxP/Brca1LoxP (C57 loxP) mice; type: in vivo, mouse; settings: 7 days of treatment; for frequency of PR/p63 double positive cells (in words): LoxP mice; for frequency of PR/p63 double positive cells: C57 loxP mice, untreated loxP 22.5±0.8%, wildtype 3.8±0.4%
# Procedure: Simultaneous Immunofluorescence for PR and p63: 3-5 μm paraffin embedded tissue sections from C57/b and C57 loxP mice were stained using antibodies against PR and p63 (Lab Vision). Briefly, samples were deparaffinized by 60° C. heating following by xylene immersion for 30 min. Antigens were retrieved by heating 10 min 95° C. followed by 10 min 85° C. in citric acid pH 6.0 (Vector). […] Next day, specific secondary goat anti mouse Alexa Fluor 488 and donkey anti rabbit Alexa Fluor 594 antibodies (Invitrogen) were used to a final concentration of 1:200 to detect the primary antibodies, by incubating the samples for 1 hour at room temperature. Finally, samples were counterstained using DAPI at 0.02 mg/ml and mounted with Vectashield (Vector). Samples were imaged using a 40× objective with 0.95 numerical aperture Zeiss Plan-Apochromat objective on a Zeiss Axiovert equipped with epifluorescence. The number of epithelial cells positive for PR, p63 or both, was then calculated as the relative frequency of positive cells per epithelial cells per image. Finally, frequencies of positive cells between animal groups were statistically analyzed with the chi-square distribution. A probability of p<0.05 was considered statistically significant. Women with BRCA1 mutations are at high risk for developing breast cancer. As described above, an animal model of Brca1 deficiency (Brca1^LoxP/Brca1^LoxP mouse model system, also referred to herein as the LoxP mouse model system) was developed in which the mammary glands are abnormally developed and which presents with a phenotype similar to that observed in women with BRCA1 mutations. The Brca1loxP/loxP phenotype is characterized by ductal dilatation and epithelial hyperplasia. In earlier studies, 4 month old Brca1loxP/loxP mice were treated with pasireotide, PQ401 (a small molecule kinase inhibitor of the IGF-I receptor), or vehicle for 7 days. At the end of that period, mammary development in drug- vs. vehicle-treated animals was compared.
# [2] = tested on: cells with more than 1 or 2 centrosomes per cell; assay: Centrosome index by γ-tubulin immunolocalization in mammary glands of LoxP mice (genomic instability); type: in vivo, mouse; settings: 7 days of treatment
# Description: Evidence directed to this point is presented in FIG. 2A, wherein immunolocalization of γ-tubulin (green) is used to locate centrosomes in the mammary glands of wildtype (WT) or Brca1 deficient (Brca1^LoxP/Brca1^LoxP) mice. Nuclei (blue) are counterstained. As shown therein, 1 or 2 centrosomes per cell are observed in wildtype mice, reflecting normal, control numbers of centrosomes in individual cells.
# Nuclei (blue) are counterstained. In wildtype mice, 1 or 2 centrosomes per cell are observed, reflecting normal, control numbers of centrosomes in individual cells.
# Brca1LoxP/Brca1LoxP mice = assay: LoxP mammary phenotype (duct width, hyperplasia, HANs) after IGF-I inhibitor treatment; type: in vivo, mouse; settings: for duct width, glandular hyperplasia and hyperplastic alveolar nodules (in words): symptomatic LoxP mice, after treatment
# Procedure: The present inventor and colleagues have previously shown that growth hormone induced IGF-I activity is essential for mammary development and also estrogen and progesterone action. To determine whether inhibition of IGF-I action would prevent, reverse or delay the abnormalities associated with BRCA deficiency observed in LoxP animals, symptomatic animals were treated with three different compounds that inhibit IGF-I action.
# Women with BRCA1 mutations are at high risk for developing breast cancer. As described above, an animal model of Brca1 deficiency (Brca1^LoxP/Brca1^LoxP mouse model system, also referred to herein as the LoxP mouse model system) was developed in which the mammary glands are abnormally developed and which presents with a phenotype similar to that observed in women with BRCA1 mutations. The Brca1loxP/loxP phenotype is characterized by ductal dilatation and epithelial hyperplasia. In earlier studies, 4 month old Brca1loxP/loxP mice were treated with pasireotide, PQ401 (a small molecule kinase inhibitor of the IGF-I receptor), or vehicle for 7 days. At the end of that period, mammary development in drug- vs. vehicle-treated animals was compared.
# [3] = tested on: Ki67 staining (cell proliferation); assay: Cell proliferation by Ki67 immunohistochemistry in mammary glands of LoxP mice; type: in vivo, mouse; settings: for cell proliferation as assessed by Ki67 immunohistochemistry: after treatment
# breast cancer = settings: women with hyperplastic lesions of the breast; clinical evidence; cited from earlier work
# SSTR-2 = SSTR-2 (Homo sapiens, UniProt P30874); settings: cited from earlier work
# SSTR-3 = SSTR-3 (Homo sapiens, UniProt P32745); settings: cited from earlier work
# SSTR-5 = SSTR-5 (Homo sapiens, UniProt P35346); settings: cited from earlier work
# somatostatin receptors = settings: of 5 subtypes; cited from earlier work
# [4] = tested on: mammary gland development; settings: rats; cited from earlier work
# [5] = humans, cited from earlier work
# [6] = rats; Bruns et al. 2002, van der Hoek et al. 2004; cited from earlier work
# [7] = Phase III, Cushing's disease; cited from earlier work
# SSTR-1 = SSTR-1 (Homo sapiens, UniProt P30872); settings: cited from earlier work
# [8] = Serum glucose and insulin levels during and post SOM230 treatment in patients; settings: human, in vivo
# [9] = 13 patients, 30 days after stopping SOM230
# Chain of SSTR-3 (P32745 whole entry, species assumed): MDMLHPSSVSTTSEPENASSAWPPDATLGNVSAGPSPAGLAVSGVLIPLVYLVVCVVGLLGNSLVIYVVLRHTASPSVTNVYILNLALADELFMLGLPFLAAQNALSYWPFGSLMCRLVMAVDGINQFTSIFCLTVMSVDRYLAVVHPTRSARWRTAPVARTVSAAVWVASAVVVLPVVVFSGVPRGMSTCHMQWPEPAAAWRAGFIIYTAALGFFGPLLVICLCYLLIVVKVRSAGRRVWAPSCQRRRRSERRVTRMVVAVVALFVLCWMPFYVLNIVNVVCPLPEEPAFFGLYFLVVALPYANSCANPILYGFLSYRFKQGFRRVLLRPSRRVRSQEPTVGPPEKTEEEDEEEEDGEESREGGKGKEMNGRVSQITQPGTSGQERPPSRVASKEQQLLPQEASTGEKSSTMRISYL
# Chain of SSTR-1 (P30872 whole entry, species assumed): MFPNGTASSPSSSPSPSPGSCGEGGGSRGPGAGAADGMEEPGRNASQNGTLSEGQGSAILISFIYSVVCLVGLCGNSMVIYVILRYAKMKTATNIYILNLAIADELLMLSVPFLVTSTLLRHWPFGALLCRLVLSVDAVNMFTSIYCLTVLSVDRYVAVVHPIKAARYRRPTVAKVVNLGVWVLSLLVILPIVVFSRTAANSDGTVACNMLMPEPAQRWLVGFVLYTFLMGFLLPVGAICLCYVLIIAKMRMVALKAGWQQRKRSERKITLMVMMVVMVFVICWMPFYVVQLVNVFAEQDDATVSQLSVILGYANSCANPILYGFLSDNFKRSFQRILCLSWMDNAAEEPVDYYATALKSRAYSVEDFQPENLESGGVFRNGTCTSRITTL
# Chain of SSTR-2 (P30874 whole entry, species assumed): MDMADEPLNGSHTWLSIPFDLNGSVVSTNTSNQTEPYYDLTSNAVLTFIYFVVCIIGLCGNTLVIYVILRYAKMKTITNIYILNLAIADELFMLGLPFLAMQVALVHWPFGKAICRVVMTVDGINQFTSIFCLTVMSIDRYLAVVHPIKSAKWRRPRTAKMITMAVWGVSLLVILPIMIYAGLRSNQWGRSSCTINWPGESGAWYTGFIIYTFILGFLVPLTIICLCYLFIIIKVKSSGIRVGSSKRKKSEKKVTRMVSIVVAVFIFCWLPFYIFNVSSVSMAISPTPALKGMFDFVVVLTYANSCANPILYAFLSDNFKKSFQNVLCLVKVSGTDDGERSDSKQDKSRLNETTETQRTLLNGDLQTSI
# Chain of SSTR-5 (P35346 whole entry, species assumed): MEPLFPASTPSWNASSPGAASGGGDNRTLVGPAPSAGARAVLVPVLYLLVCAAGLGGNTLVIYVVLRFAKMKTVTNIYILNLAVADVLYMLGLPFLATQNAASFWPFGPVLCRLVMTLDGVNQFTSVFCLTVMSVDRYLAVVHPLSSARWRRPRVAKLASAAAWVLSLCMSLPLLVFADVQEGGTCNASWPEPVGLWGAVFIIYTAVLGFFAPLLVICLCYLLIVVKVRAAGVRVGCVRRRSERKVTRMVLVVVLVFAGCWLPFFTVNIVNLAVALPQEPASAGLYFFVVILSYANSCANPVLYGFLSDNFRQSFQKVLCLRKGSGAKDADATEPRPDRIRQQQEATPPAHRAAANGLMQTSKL
compound,measurement,setting,value
COc1ccc(Cl)cc1NC(=O)Nc1cc(C)nc2ccccc12 [PQ401],frequency of PR/p63 double positive cells (in words),[1],significantly reduce; also recorded: dramatically reduced
same,centrosome index / frequency of cells with more than 1 or 2 centrosomes (in words),[2],significantly reduced
same,"duct width, glandular hyperplasia and hyperplastic alveolar nodules (in words)",Brca1LoxP/Brca1LoxP mice,"reduces duct width, glandular hyperplasia and hyperplastic alveolar nodules"
same,cell proliferation as assessed by Ki67 immunohistochemistry,[3],significantly reduce cell proliferation
CC/C(=C(\c1ccccc1)c1ccc(OCCN(C)C)cc1)c1ccccc1 [tamoxifen],prevention of the development of cancer,breast cancer,about 50%
NCCCC[C@@H]1NC(=O)[C@@H](Cc2c[nH]c3ccccc23)NC(=O)[C@H](c2ccccc2)NC(=O)[C@@H]2C[C@@H](OC(=O)NCCN)CN2C(=O)[C@H](Cc2ccccc2)NC(=O)[C@H](Cc2ccc(OCc3ccccc3)cc2)NC1=O [SOM230] (cyclo(F[Hyp]([CO-Ethylenediamine])[Phg][dW]KY(Bn))),frequency of PR/p63 double positive cells,[1],5%
same,frequency of PR/p63 double positive cells,[1]; listed as pasireotide,4.8±1.2%
same,frequency of PR/p63 double positive cells (in words),[1],significantly reduce; also recorded: dramatically reduced
same,centrosome index / frequency of cells with more than 1 or 2 centrosomes (in words),[2],significantly reduced
same,abnormal ductal dilatation,Brca1LoxP/Brca1LoxP mice; LoxP mice,significant effect on inhibiting
same,formation of HANs,Brca1LoxP/Brca1LoxP mice; LoxP mice,preventing formation of HANs
same,duct width at 21 days post-treatment (in words),"Brca1LoxP/Brca1LoxP mice; LoxP mice, SOM230 treatment then 21 days rest",maintained
same,"time clinical benefit (reduction in PR/p63+ progenitor cells, ductal width and/or proliferative cells) is maintained into the rest period","Brca1LoxP/Brca1LoxP mice; LoxP mice, after end of administration",at least 20 days
same,"duct width, glandular hyperplasia and hyperplastic alveolar nodules (in words)",Brca1LoxP/Brca1LoxP mice,reduces duct width
same,"duct width, glandular hyperplasia and hyperplastic alveolar nodules (in words)",Brca1LoxP/Brca1LoxP mice; listed as Pasireotide,"reduces duct width, glandular hyperplasia and hyperplastic alveolar nodules"
same,cell proliferation as assessed by Ki67 immunohistochemistry,[3],significantly reduce cell proliferation
same,cell proliferation (Ki67 staining) at 21 days post-treatment,"[3]; treated vs untreated, 21 days into rest period",continues to be inhibited
same,serum glucose at 60 days after discontinuation,13 patients,normal
same,serum insulin at 60 days after discontinuation,13 patients,normal
same,time by which serum glucose and insulin levels normalize after SOM230 administration ceases,13 patients,≤ 30 days
same,mean glucose,[9],95
same,serum insulin,[9],increased
same,women tested with finger stick glucoses of less than 92 mg/dL,by 4 days after cessation of SOM230 administration,6 of 8
same,patients with hyperglycemia,patients diagnosed with or pre-disposed to breast cancer treated with SOM230,100%
same,30 day post-treatment glucose of the patient ultimately determined to be diabetic,"single patient, initial blood sugar 100",117
same,affinity for SSTR-2,SSTR-2,high binding affinity
same,affinity for SSTR-3,SSTR-3,high binding affinity
same,affinity for SSTR-5,SSTR-5,high binding affinity
same,somatostatin receptors bound,somatostatin receptors,4 of the 5
same,IRS-1 phosphorylation in the mammary gland,[4],reduction
same,growth hormone secretion from the pituitary,[4],inhibitory effect
same,mammary gland development,[4],prevents mammary gland development
same,terminal half life,"[5]; Bruns et al. 2002, van der Hoek et al. 2004",27 h
same,plasma half life,[5]; Ma et al. 2005,approximately 12 hours
same,terminal half life,[6],27 h
same,HbA1C level,[7],increased
same,cholelithiasis,[7],30%
same,diarrhea,[7],58%
same,fasting plasma glucose level,[7],increased
same,hyperglycemia,[7],40%
same,nausea,[7],52%
same,patients with a hyperglycemia-related adverse event,[7],73%
same,affinity for SSTR-1,SSTR-1,high binding affinity
same,normalization of finger stick glucose after stopping medication (in words),[8],almost immediately
C[C@H](N)C(=O)NCC(=O)N[C@H]1CSSC[C@@H](C(=O)O)NC(=O)[C@H](CO)NC(=O)[C@H]([C@@H](C)O)NC(=O)[C@H](Cc2ccccc2)NC(=O)[C@H]([C@@H](C)O)NC(=O)C(CCCCN)NC(=O)[C@H](Cc2c[nH]c3ccccc23)NC(=O)[C@H](Cc2ccccc2)NC(=O)[C@H](Cc2ccccc2)NC(=O)[C@H](CC(N)=O)NC(=O)[C@H](CCCCN)NC1=O (some centres unmarked) [SS14],number of HANs,Brca1LoxP/Brca1LoxP mice; nine month old LoxP animals,impressive reduction
same,"duct width, glandular hyperplasia and hyperplastic alveolar nodules (in words)",Brca1LoxP/Brca1LoxP mice,"reduces duct width, glandular hyperplasia and hyperplastic alveolar nodules"
same,somatostatin receptors bound,somatostatin receptors,all of the somatostatin receptors
